Reference: patent US11617777B2, “Cytotoxic and anti-mitotic compounds, and methods of using the same” (ZYMEWORKS BC INC., priority 2013, dated 2023)

Test system: Jurkat cells
Assay: Cytotoxicity of compounds, CellTiter-Glo
Type: cell-based, Human
Conditions: Homo sapiens, Jurkat, Table 3; Cytotoxicity of Compounds on Jurkat Cells; read-out: EC50
Text: Cell lines used: Human T-cell leukemia cell line Jurkat (ATCC: TIB-152); HCC1954 (ATCC: CRL. 2338); Human Pancreatic cells lines: AsPC-1 (ATCC: CRL-1682), BxPC-3 (ATCC: CRL.1687), HPAF-II (ATCC: CRL.1997), MiaPaCa2 (ATCC: CRL.1420), PANC-1 (ATCC: CRL.1469), Capan-1 (ATCC: HTB-79), Capan-2 (ATCC: HTB-80) and the Human gastric carcinoma cell line NCI-N87 (ATCC: CRL. 5822); AML-193 (ATCC: CRL.9589), CCRF-CEM (ATCC: CCL-119), DU145 (ATCC: HTB-81), PC-3 (ATCC: CRL.1435), A-431 (ATCC: CRL.1555), HT-29 (ATCC: HTB-38), A-172 (ATCC: CRL.1620), NCI-H358 (ATCC: CRL.5807), A549 (ATCC: CCL-185), Colo-205 (ATCC: CCL-222), MDA-MB-231 (ATCC: HTB-26), OVCAR-3 (ATCC: HTB-161), OV-90 (ATCC: CRL.11732), OE19 (Sigma: 96071721), RT 112/84 (Sigma: 85061106).
On the day prior to adding compounds, HCC1954 AsPC-1, BxPC-3, HPAF-II, MiaPaCa2, PANC-1, Capan-1, Capan-2 and NCI-N87 cells were added to opaque-walled 96-well tissue culture-treated microtiter plates using complete growth medium at a density of 2500 cells/100 microlitre (uL) of medium. These adherant cell lines cells were incubated for one night at 37° C./5% CO2 to allow the cells to attach to the microtiter plate surface. On the day that compounds were added, Jurkat cells are added to separate 96-well microtiter plates at 2500 cells/100 uL using the same growth medium as HCC1954. Compound were first serially diluted using dimethyl sulfoxide, and then the prepared dilutions are added to complete growth medium at five-times the final concentration—compounds were then titrated 1:3, eight steps. A control with no compound (growth medium alone) was included on each microtiter plate in sextuplicate. The prepared compounds titrations were added (twenty-five uL/well) in triplicate. The cells and compound titrations were incubated at 37° C./5% CO2 for three nights. After the incubation, cell viability is measured using CellTiter-Glo® reagent by adding thirty uL of prepared CellTiter-Glo® to each assay well. The assay is incubated for at least twenty minutes in the dark prior to measuring emitted luminescence using a microplate luminometer (500 ms integration time). The collected relative luminescence units (RLU) are converted to % cytotoxicity using the Growth medium alone control mentioned above (% Cytotoxicity=1−[Well RLU/average medium alone control RLU]).
GraphPad Prism was used for generation of EC50 values using three parameter non-linear regression curve fitting.

**Q.** How did the EC50 turn out when CN[C@H](C(=O)N[C@H](C(=O)N1CCCCC1C=C(C)C(=O)NS(=O)(=O)c1ccc(CS)cc1)C(C)(C)C)C(C)(C)c1ccccc1 (mixture of isomers) [Compound 118, (S)—N—((S)-1-(2-(3-(4-(mercaptomethyl)phenylsulfonamido)-2-methyl-3-oxoprop-1-enyl)piperidin-1-yl)-3,3-dimethyl-1-oxobutan-2-yl)-3-methyl-2-(methylamino)-3-phenylbutanamide] was run?
**A.** Its EC50 is 13 nM.

**Q.** With CN[C@H](C(=O)N[C@H](C(=O)N(C)[C@H](/C=C(\C)C(=O)NS(=O)(=O)c1c(C)cc(C)cc1C)C(C)C)C(C)(C)C)C(C)(C)c1ccccc1 [Compound 12, (S,E)-N-(mesitylsulfonyl)-2,5-dimethyl-4-((S)—N,3,3-trimethyl-2-((S)-3-methyl-2-(methylamino)-3-phenylbutanamido)butanamido)hex-2-enamide] as the compound, how does the EC50 read?
**A.** The EC50 was 0.03 nM.

**Q.** Which EC50 does the source give for CN[C@H](C(=O)N[C@H](C(=O)N(C)[C@H](/C=C(\C)C(=O)NS(=O)(=O)c1ccc(OC(F)(F)F)cc1)C(C)C)C(C)(C)C)C(C)(C)c1ccccc1 [Compound 13, (S,E)-2,5-dimethyl-N-(4-(trifluoromethoxy)phenylsulfonyl)-4-((S)—N,3,3-trimethyl-2-((S)-3-methyl-2-(methylamino)-3-phenylbutanamido)butanamido)hex-2-enamide] here?
**A.** The EC50 was 0.038 nM.

**Q.** With CN[C@H](C(=O)N[C@H](C(=O)N(C)[C@H](/C=C(\C)C(=O)NS(=O)(=O)c1c(C(C)C)cc(C(C)C)cc1C(C)C)C(C)C)C(C)(C)C)C(C)(C)c1ccccc1 [Compound 15, (S,E)-2,5-dimethyl-N-(2,4,6-triisopropylphenylsulfonyl)-4-((S)—N,3,3-trimethyl-2-((S)-3-methyl-2-(methylamino)-3-phenylbutanamido)butanamido)hex-2-enamide] as the compound, how does the EC50 read?
**A.** Its EC50 is 7.6 nM.

**Q.** CN[C@H](C(=O)N[C@H](C(=O)N(C)[C@H](/C=C(\C)C(=O)NS(=O)(=O)c1ccc(C(C)(C)C)cc1)C(C)C)C(C)(C)C)C(C)(C)c1ccccc1 [Compound 16, (S,E)-N-(4-tert-butylphenylsulfonyl)-2,5-dimethyl-4-((S)—N,3,3-trimethyl-2-((S)-3-methyl-2-(methylamino)-3-phenylbutanamido)butanamido)hex-2-enamide] was tested. Which EC50 did it give?
**A.** The EC50 was 0.041 nM.

**Q.** Which EC50 does the source give for CN[C@H](C(=O)N[C@H](C(=O)N(C)[C@H](/C=C(\C)C(=O)NS(=O)(=O)c1ccc(Cl)cc1)C(C)C)C(C)(C)C)C(C)(C)c1ccccc1 [Compound 17, (S,E)-N-(4-chlorophenylsulfonyl)-2,5-dimethyl-4-((S)—N,3,3-trimethyl-2-((S)-3-methyl-2-(methylamino)-3-phenylbutanamido)butanamido)hex-2-enamide] here?
**A.** The EC50 was 0.325 nM.

**Q.** For CN[C@H](C(=O)N[C@H](C(=O)N(C)[C@H](/C=C(\C)C(=O)NS(=O)(=O)c1cccc(C#N)c1)C(C)C)C(C)(C)C)C(C)(C)c1ccccc1 [Compound 18, (S,E)-N-(3-cyanophenylsulfonyl)-2,5-dimethyl-4-((S)—N,3,3-trimethyl-2-((S)-3-methyl-2-(methylamino)-3-phenylbutanamido)butanamido)hex-2-enamide], which EC50 is on record?
**A.** The EC50 was 1.36 nM.

**Q.** For CN[C@H](C(=O)N[C@H](C(=O)N(C)[C@H](/C=C(\C)C(=O)NS(=O)(=O)c1ccccc1[N+](=O)[O-])C(C)C)C(C)(C)C)C(C)(C)c1ccccc1 [Compound 19, (S,E)-2,5-dimethyl-N-(2-nitrophenylsulfonyl)-4-((S)—N,3,3-trimethyl-2-((S)-3-methyl-2-(methylamino)-3-phenylbutanamido)butanamido)hex-2-enamide], which EC50 is on record?
**A.** The EC50 was 0.152 nM.

**Q.** Which EC50 does the source give for CN[C@H](C(=O)N[C@H](C(=O)N(C)[C@H](/C=C(\C)C(=O)NS(=O)(=O)c1ccccc1)C(C)C)C(C)(C)C)C(C)(C)c1ccccc1 [Compound 25, (S,E)-2,5-dimethyl-N-(phenylsulfonyl)-4-((S)—N,3,3-trimethyl-2-((S)-3-methyl-2-(methylamino)-3-phenylbutanamido)butanamido)hex-2-enamide] here?
**A.** Its EC50 is 0.05 nM.

**Q.** How did the EC50 turn out when CN[C@H](C(=O)N[C@H](C(=O)N(C)[C@H](/C=C(\C)C(=O)NS(=O)(=O)NCc1ccccc1F)C(C)C)C(C)(C)C)C(C)(C)c1ccccc1 [Compound 26, (S,E)-N—(N-(2-fluorobenzyl)sulfamoyl)-2,5-dimethyl-4-((S)—N,3,3-trimethyl-2-((S)-3-methyl-2-(methylamino)-3-phenylbutanamido)butanamido)hex-2-enamide] was run?
**A.** Its EC50 is 0.105 nM.

**Q.** Which EC50 does the source give for CN[C@H](C(=O)N[C@H](C(=O)N(C)[C@H](/C=C(\C)C(=O)NS(=O)(=O)N1CCCCC1)C(C)C)C(C)(C)C)C(C)(C)c1ccccc1 [Compound 27, (S,E)-2,5-dimethyl-N-(piperidin-1-ylsulfonyl)-4-((S)—N,3,3-trimethyl-2-((S)-3-methyl-2-(methylamino)-3-phenylbutanamido)butanamido)hex-2-enamide] here?
**A.** Its EC50 is 0.157 nM.

**Q.** CN[C@H](C(=O)N[C@H](C(=O)N(C)[C@H](/C=C(\C)C(=O)NS(=O)(=O)c1ccc(Br)cc1)C(C)C)C(C)(C)C)C(C)(C)c1ccccc1 [Compound 29, (S,E)-N-(4-bromophenylsulfonyl)-2,5-dimethyl-4-((S)—N,3,3-trimethyl-2-((S)-3-methyl-2-(methylamino)-3-phenylbutanamido)butanamido)hex-2-enamide] was tested. Which EC50 did it give?
**A.** The EC50 was 0.121 nM.

**Q.** Which EC50 does the source give for CN[C@H](C(=O)N[C@H](C(=O)N(C)[C@H](/C=C(\C)C(=O)NS(=O)(=O)c1ccc2ccccc2c1)C(C)C)C(C)(C)C)C(C)(C)c1ccccc1 [Compound 30, (S,E)-2,5-dimethyl-N-(naphthalen-2-ylsulfonyl)-4-((S)—N,3,3-trimethyl-2-((S)-3-methyl-2-(methylamino)-3-phenylbutanamido)butanamido)hex-2-enamide] here?
**A.** Its EC50 is 0.109 nM.

**Q.** With CN[C@H](C(=O)N[C@H](C(=O)N(C)[C@H](/C=C(\C)C(=O)NS(=O)(=O)NCc1ccccc1C(F)(F)F)C(C)C)C(C)(C)C)C(C)(C)c1ccccc1 [Compound 32, (S,E)-2,5-dimethyl-N—(N-(2-(trifluoromethyl)benzyl)sulfamoyl)-4-((S)—N,3,3-trimethyl-2-((S)-3-methyl-2-(methylamino)-3-phenylbutanamido)butanamido)hex-2-enamide] as the compound, how does the EC50 read?
**A.** The EC50 was 0.265 nM.

**Q.** Which EC50 does the source give for CN[C@H](C(=O)N[C@H](C(=O)N(C)[C@H](/C=C(\C)C(=O)NS(=O)(=O)CCOC)C(C)C)C(C)(C)C)C(C)(C)c1ccccc1 [Compound 34, (S,E)-N-(2-methoxyethylsulfonyl)-2,5-dimethyl-4-((S)—N,3,3-trimethyl-2-((S)-3-methyl-2-(methylamino)-3-phenylbutanamido)butanamido)hex-2-enamide] here?
**A.** The EC50 was 0.2 nM.

**Q.** CN[C@H](C(=O)N[C@H](C(=O)N(C)[C@H](/C=C(\C)C(=O)NS(=O)(=O)Cc1ccccc1)C(C)C)C(C)(C)C)C(C)(C)c1ccc(N=[N+]=[N-])cc1 [Compound 42, (S,E)-4-((S)-2-((S)-3-(4-azidophenyl)-3-methyl-2-(methylamino)butanamido)-N,3,3-trimethylbutanamido)-N-(benzylsulfonyl)-2,5-dimethylhex-2-enamide] was tested. Which EC50 did it give?
**A.** The EC50 was 0.165 nM.

**Q.** CN[C@H](C(=O)N[C@H](C(=O)N(C)[C@H](/C=C(\C)C(=O)NS(=O)(=O)C1CCCCC1)C(C)C)C(C)(C)C)C(C)(C)c1ccccc1 [Compound 44, (S,E)-N-(cyclohexylsulfonyl)-2,5-dimethyl-4-((S)—N,3,3-trimethyl-2-((S)-3-methyl-2-(methylamino)-3-phenylbutanamido)butanamido)hex-2-enamide] was tested. Which EC50 did it give?
**A.** The EC50 was 0.114 nM.

Same assay, conditions: Homo sapiens, Jurkat, Table 6; Compound Cytotoxicity on Jurkat; read-out: EC50

**Q.** CN[C@H](C(=O)N[C@H](C(=O)N(C)[C@H](/C=C(\C)C(=O)NS(=O)(=O)c1ccc(OC(F)(F)F)cc1)C(C)C)C(C)(C)C)C(C)(C)c1ccccc1 [Compound 13, (S,E)-2,5-dimethyl-N-(4-(trifluoromethoxy)phenylsulfonyl)-4-((S)—N,3,3-trimethyl-2-((S)-3-methyl-2-(methylamino)-3-phenylbutanamido)butanamido)hex-2-enamide] was tested. Which EC50 did it give?
**A.** Its EC50 is 1.51 nM.

**Q.** With CCCCC(C)S(=O)(=O)NC(=O)/C(C)=C/[C@H](C(C)C)N(C)C(=O)[C@@H](NC(=O)[C@@H](NC)C(C)(C)c1ccccc1)C(C)(C)C (stereo partly drawn) [Compound 33, (4S,E)-N-(hexan-2-ylsulfonyl)-2,5-dimethyl-4-((S)—N,3,3-trimethyl-2-((S)-3-methyl-2-(methylamino)-3-phenylbutanamido)butanamido)hex-2-enamide] as the compound, how does the EC50 read?
**A.** Its EC50 is 0.636 nM.

**Q.** Which EC50 does the source give for CN[C@H](C(=O)N[C@H](C(=O)N(C)[C@H](/C=C(\C)C(=O)NS(=O)(=O)CC1CCCC1)C(C)C)C(C)(C)C)C(C)(C)c1ccccc1 [Compound 35, (S,E)-N-(cyclopentylmethylsulfonyl)-2,5-dimethyl-4-((S)—N,3,3-trimethyl-2-((S)-3-methyl-2-(methylamino)-3-phenylbutanamido)butanamido)hex-2-enamide] here?
**A.** Its EC50 is 0.832 nM.

**Q.** Which EC50 does the source give for CN[C@H](C(=O)N[C@H](C(=O)N(C)[C@H](/C=C(\C)C(=O)NS(=O)(=O)C1CCCCC1)C(C)C)C(C)(C)C)C(C)(C)c1ccccc1 [Compound 44, (S,E)-N-(cyclohexylsulfonyl)-2,5-dimethyl-4-((S)—N,3,3-trimethyl-2-((S)-3-methyl-2-(methylamino)-3-phenylbutanamido)butanamido)hex-2-enamide] here?
**A.** The EC50 was 1.48 nM.
